Source: the NIST ThermoML archive (doi:10.1021/je100423n)
Numbers after ± are expanded uncertainties.

How the values were obtained:
[1] = Molar enthalpy of transition or fusion; details: Crystal; DSC
[2] = molar heat capacity at constant pressure; details: 101.33 kPa, Crystal

For `Cn1cc[n+](CCCCS(=O)(=O)[O-])c1` [4-(1-methyl-1H-imidazolium-3-yl)butane-1-sulfonate], the Normal melting temperature (Crystal, DTA) was 235.83 ± 0.5 °C, the Glass transition temperature (Glass, Adiabatic calorimetry) was 30.46 ± 0.05 °C and the “Molar enthalpy of transition or fusion” value [1] was 6.01 ± 0.184 kcal/mol. The “molar heat capacity at constant pressure” value ([2]; 80.21 K) was 109.32 ± 2.6 J/K/mol, the “molar heat capacity at constant pressure” value ([2]; 82.3 K) was 110.19 ± 2.6 J/K/mol and the “molar heat capacity at constant pressure” value ([2]; 84.23 K) was 111.45 ± 2.6 J/K/mol. For the same compound, the “molar heat capacity at constant pressure” value ([2]; 86.16 K) was 114.23 ± 2.7 J/K/mol, the “molar heat capacity at constant pressure” value ([2]; 88.12 K) was 115.88 ± 2.7 J/K/mol and the “molar heat capacity at constant pressure” value ([2]; 90.06 K) was 117.56 ± 2.7 J/K/mol. For the same compound, the “molar heat capacity at constant pressure” value ([2]; 92.01 K) was 118.29 ± 2.7 J/K/mol, the “molar heat capacity at constant pressure” value ([2]; 93.95 K) was 119.31 ± 2.7 J/K/mol and the “molar heat capacity at constant pressure” value ([2]; 95.89 K) was 120.93 ± 2.7 J/K/mol. The “molar heat capacity at constant pressure” value ([2]; 97.83 K) was 122.2 ± 2.8 J/K/mol, the “molar heat capacity at constant pressure” value ([2]; 99.77 K) was 123.74 ± 2.8 J/K/mol and the “molar heat capacity at constant pressure” value ([2]; 102.48 K) was 124.48 ± 2.8 J/K/mol. The “molar heat capacity at constant pressure” value ([2]; 105.12 K) was 126.89 ± 2.8 J/K/mol, the “molar heat capacity at constant pressure” value ([2]; 107 K) was 127.99 ± 2.9 J/K/mol and the “molar heat capacity at constant pressure” value ([2]; 108.91 K) was 129.52 ± 2.9 J/K/mol. For the same compound, the “molar heat capacity at constant pressure” value ([2]; 110.85 K) was 130.01 ± 2.9 J/K/mol, the “molar heat capacity at constant pressure” value ([2]; 112.81 K) was 131.16 ± 2.9 J/K/mol and the “molar heat capacity at constant pressure” value ([2]; 114.75 K) was 132.61 ± 2.9 J/K/mol. For the same compound, the “molar heat capacity at constant pressure” value ([2]; 116.67 K) was 133.57 ± 2.9 J/K/mol, the “molar heat capacity at constant pressure” value ([2]; 118.61 K) was 135.14 ± 3 J/K/mol and the “molar heat capacity at constant pressure” value ([2]; 120.58 K) was 137.07 ± 3 J/K/mol. The “molar heat capacity at constant pressure” value ([2]; 122.53 K) was 137.67 ± 3 J/K/mol, the “molar heat capacity at constant pressure” value ([2]; 124.46 K) was 138.87 ± 3 J/K/mol and the “molar heat capacity at constant pressure” value ([2]; 126.38 K) was 139.75 ± 3 J/K/mol. For the same compound, the “molar heat capacity at constant pressure” value ([2]; 128.32 K) was 140.75 ± 3 J/K/mol, the “molar heat capacity at constant pressure” value ([2]; 130.3 K) was 142.4 ± 3.1 J/K/mol and the “molar heat capacity at constant pressure” value ([2]; 132.25 K) was 144.69 ± 3.1 J/K/mol. The “molar heat capacity at constant pressure” value ([2]; 134.2 K) was 145.28 ± 3.1 J/K/mol, the “molar heat capacity at constant pressure” value ([2]; 136.13 K) was 145.45 ± 3.1 J/K/mol and the “molar heat capacity at constant pressure” value ([2]; 138.04 K) was 146.27 ± 3.1 J/K/mol. The “molar heat capacity at constant pressure” value ([2]; 139.98 K) was 147.32 ± 3.2 J/K/mol, the “molar heat capacity at constant pressure” value ([2]; 141.94 K) was 148.6 ± 3.2 J/K/mol and the “molar heat capacity at constant pressure” value ([2]; 143.9 K) was 150.42 ± 3.2 J/K/mol. The “molar heat capacity at constant pressure” value ([2]; 145.84 K) was 151.09 ± 3.2 J/K/mol, the “molar heat capacity at constant pressure” value ([2]; 147.76 K) was 152.25 ± 3.2 J/K/mol and the “molar heat capacity at constant pressure” value ([2]; 149.67 K) was 153.38 ± 3.2 J/K/mol. The “molar heat capacity at constant pressure” value ([2]; 152.19 K) was 153.72 ± 3.3 J/K/mol, the “molar heat capacity at constant pressure” value ([2]; 154.71 K) was 155.47 ± 3.3 J/K/mol and the “molar heat capacity at constant pressure” value ([2]; 156.63 K) was 157 ± 3.3 J/K/mol. The “molar heat capacity at constant pressure” value ([2]; 158.54 K) was 158.94 ± 3.3 J/K/mol, the “molar heat capacity at constant pressure” value ([2]; 160.5 K) was 159.74 ± 3.4 J/K/mol and the “molar heat capacity at constant pressure” value ([2]; 162.51 K) was 160.66 ± 3.4 J/K/mol. The “molar heat capacity at constant pressure” value ([2]; 164.51 K) was 162.3 ± 3.4 J/K/mol, the “molar heat capacity at constant pressure” value ([2]; 166.5 K) was 163.42 ± 3.4 J/K/mol and the “molar heat capacity at constant pressure” value ([2]; 168.48 K) was 163.25 ± 3.4 J/K/mol. For the same compound, the “molar heat capacity at constant pressure” value ([2]; 170.44 K) was 164.22 ± 3.4 J/K/mol, the “molar heat capacity at constant pressure” value ([2]; 172.4 K) was 166.07 ± 3.5 J/K/mol and the “molar heat capacity at constant pressure” value ([2]; 174.34 K) was 169.35 ± 3.5 J/K/mol. For the same compound, the “molar heat capacity at constant pressure” value ([2]; 176.29 K) was 169.43 ± 3.5 J/K/mol, the “molar heat capacity at constant pressure” value ([2]; 178.22 K) was 169.86 ± 3.5 J/K/mol and the “molar heat capacity at constant pressure” value ([2]; 180.14 K) was 172.46 ± 3.6 J/K/mol. For the same compound, the “molar heat capacity at constant pressure” value ([2]; 182.06 K) was 172.94 ± 3.6 J/K/mol, the “molar heat capacity at constant pressure” value ([2]; 183.96 K) was 173.45 ± 3.6 J/K/mol and the “molar heat capacity at constant pressure” value ([2]; 185.91 K) was 174.79 ± 3.6 J/K/mol. For the same compound, the “molar heat capacity at constant pressure” value ([2]; 187.92 K) was 176.2 ± 3.6 J/K/mol, the “molar heat capacity at constant pressure” value ([2]; 189.92 K) was 177.8 ± 3.6 J/K/mol and the “molar heat capacity at constant pressure” value ([2]; 191.9 K) was 179.25 ± 3.7 J/K/mol. For the same compound, the “molar heat capacity at constant pressure” value ([2]; 193.89 K) was 180.62 ± 3.7 J/K/mol, the “molar heat capacity at constant pressure” value ([2]; 195.86 K) was 181.69 ± 3.7 J/K/mol and the “molar heat capacity at constant pressure” value ([2]; 197.82 K) was 183.02 ± 3.7 J/K/mol. The “molar heat capacity at constant pressure” value ([2]; 199.78 K) was 184.59 ± 3.8 J/K/mol, the “molar heat capacity at constant pressure” value ([2]; 202.16 K) was 186.03 ± 3.8 J/K/mol and the “molar heat capacity at constant pressure” value ([2]; 204.55 K) was 188.92 ± 3.8 J/K/mol. The “molar heat capacity at constant pressure” value ([2]; 206.52 K) was 189.41 ± 3.8 J/K/mol, the “molar heat capacity at constant pressure” value ([2]; 208.48 K) was 190.86 ± 3.9 J/K/mol and the “molar heat capacity at constant pressure” value ([2]; 210.43 K) was 192.56 ± 3.9 J/K/mol. For the same compound, the “molar heat capacity at constant pressure” value ([2]; 212.37 K) was 193.16 ± 3.9 J/K/mol, the “molar heat capacity at constant pressure” value ([2]; 214.31 K) was 194.31 ± 3.9 J/K/mol and the “molar heat capacity at constant pressure” value ([2]; 216.23 K) was 195.92 ± 3.9 J/K/mol. The “molar heat capacity at constant pressure” value ([2]; 218.15 K) was 196.94 ± 4 J/K/mol, the “molar heat capacity at constant pressure” value ([2]; 220.06 K) was 198.36 ± 4 J/K/mol and the “molar heat capacity at constant pressure” value ([2]; 221.95 K) was 199.16 ± 4 J/K/mol. The “molar heat capacity at constant pressure” value ([2]; 223.84 K) was 200.4 ± 4 J/K/mol, the “molar heat capacity at constant pressure” value ([2]; 225.81 K) was 201.12 ± 4 J/K/mol and the “molar heat capacity at constant pressure” value ([2]; 227.76 K) was 203.49 ± 4.1 J/K/mol. The “molar heat capacity at constant pressure” value ([2]; 229.69 K) was 205.7 ± 4.1 J/K/mol, the “molar heat capacity at constant pressure” value ([2]; 231.68 K) was 206.8 ± 4.1 J/K/mol and the “molar heat capacity at constant pressure” value ([2]; 233.67 K) was 207.23 ± 4.1 J/K/mol.
